The values below come from patent US12319655B2, “RAF kinase inhibitors and methods of use thereof” (Deciphera Pharmaceuticals, LLC, priority 2021, dated 2025).

In test [1] the target is C-Raf kinase (SEQ. ID NO: 3) (Homo sapiens (Human), UniProt P04049, Y340D/Y341D). The test is described as follows: Biochemical Assay for C-Raf (1). As to conditions: Table J, assay version (1); read-out: CRAF (1) IC50. In outline: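 Coupled pyruvate kinase/LDH assay tracking NADH oxidation at 340 nm, with 0.43 nM C-Raf, 30.1 nM MEK and 1 mM ATP in pH 7.5 Tris buffer (15 mM MgCl2, 1% DMSO final). Read continuously for 6 h at 30 °C, rate taken from the 4–5 h window. IC50 from four-parameter fit of percent inhibition.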

In test [2] the target is B-Raf (V600E) (SEQ. ID NO: 4) kinase (Homo sapiens (Human), UniProt P15056, V600E). The test is described as follows: Biochemical Assay for B-Raf (V600E) (1). As to conditions: Table J, BRAF V600E, assay version (1); read-out: BRAF VE (1) IC50. In outline:
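Coupled pyruvate kinase/lactate dehydrogenase assay: 0.03 nM B-Raf V600E, 30.1 nM MEK, 1 mM ATP, pH 7.5 Tris/MgCl2 buffer, 1% DMSO. NADH oxidation followed at 340 nm for 6 h at 30 °C; rate from 3–4 h converted to percent inhibition, IC50 by four-parameter fit.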

In a further test the test system is H2405 cells. The experiment in a line: H2405 Cell Proliferation Assay (1). It is filed as cell-based. The settings on record: Homo sapiens, NCI-H2405. The protocol: H2405 Cell Proliferation Assay (1)
H2405 cells (catalog #CRL-5994) are obtained from the American Type Culture Collect (ATTC, Manassas, VA). Briefly, cells were grown in RPMI 1640 supplemented with 5% characterized fetal bovine serum (Invitrogen, Carlsbad, CA) and 1% Penicillin/Streptomycin/L-Glutamine at 37° C., 5% CO2, and 95% humidity. Cells are expanded until reaching 70-95% confluency at which point they are sub-cultured or harvested for assay use. A serial dilution of test compound is dispensed into a 96-well black clear bottom plate in triplicate. Three thousand cells are added per well in 200 μL complete growth medium in the 96-well plate. Plates are incubated for 67-72 h at 37° C., 5% CO2, and 95% humidity. At the end of the incubation, 40 μL of a 440 μM solution of resazurin (Sigma, St. Louis, MO) in PBS is added to each well of the plate and plates are incubated for an additional 5-6 h at 37° C., 5% CO2, and 95% humidity. Plates are read on a Synergy2 or equivalent reader (Biotek, Winooski VT) using an excitation of 540 nm and an emission of 600 nm. Data is analyzed using Prism software (GraphPad, San Diego, CA) to calculate IC50 values.

The next test has as its system Miapaca-2 cells. The test is described as follows: MiaPaca-2 Cell Proliferation Assay (1). The settings on record: Homo sapiens, MIA PaCa-2, single agent, read-out: MiaPaca2 (1) IC50. It counts as cell-based. In outline:
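Resazurin was added after compound exposure and incubated 5-6 h, then fluorescence read at 540 nm excitation and 600 nm emission to give IC50.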

B-Raf (V600E) (SEQ. ID NO: 4) kinase, sequence (P15056 416-766 V600E): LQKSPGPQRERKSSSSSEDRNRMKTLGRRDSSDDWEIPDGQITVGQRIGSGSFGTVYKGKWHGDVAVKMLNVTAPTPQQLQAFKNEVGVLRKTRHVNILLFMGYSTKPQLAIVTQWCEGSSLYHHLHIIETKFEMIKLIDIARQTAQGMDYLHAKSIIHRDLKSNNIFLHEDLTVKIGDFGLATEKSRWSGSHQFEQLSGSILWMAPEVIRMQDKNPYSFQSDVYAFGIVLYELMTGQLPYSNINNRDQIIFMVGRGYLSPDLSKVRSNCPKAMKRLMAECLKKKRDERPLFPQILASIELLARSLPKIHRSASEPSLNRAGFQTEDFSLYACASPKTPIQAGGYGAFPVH
C-Raf kinase (SEQ. ID NO: 3), sequence (P04049 307-648 Y340D/Y341D): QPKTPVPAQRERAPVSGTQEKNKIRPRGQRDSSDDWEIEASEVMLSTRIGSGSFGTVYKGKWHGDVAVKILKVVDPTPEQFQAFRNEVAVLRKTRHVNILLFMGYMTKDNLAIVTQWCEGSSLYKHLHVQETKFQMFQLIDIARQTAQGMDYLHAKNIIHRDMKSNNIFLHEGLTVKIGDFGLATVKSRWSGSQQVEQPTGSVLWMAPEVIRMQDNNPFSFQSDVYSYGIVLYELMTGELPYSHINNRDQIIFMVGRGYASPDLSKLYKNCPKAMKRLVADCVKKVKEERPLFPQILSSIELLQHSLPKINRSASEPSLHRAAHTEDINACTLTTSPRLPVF

As usually defined, the IC50 is the concentration that gives 50% inhibition. For `Cc1ccc(NC(=O)c2ccnc(C(C)(C)C#N)c2)cc1-c1ccnc(-c2ccnc(C(=O)NC3CC3)c2)c1` [Example 162], the IC50 is 100 to 500 nM in test [1], not above 100 nM in test [2], 100 to 500 nM in the test with H2405 cells and 1000 to 10000 nM in the test on Miapaca-2 cells.
Regarding `CNC(=O)c1cc(-c2cccc(-c3cc(NC(=O)c4ccnc(C(C)(C)C#N)c4)ccc3C)c2)ncn1` [Example 171], the IC50 in test [1] is not above 100 nM; in test [2] it was not above 100 nM; in the test with H2405 cells it was 100 to 500 nM; in the test on Miapaca-2 cells, 1000 to 10000 nM.
In the case of `Cc1ncc(NC(=O)c2ccnc(C(C)(C)C#N)c2)cc1-c1cccc(-c2ccnc3[nH]cnc23)c1` [Example 111], the IC50 in test [1] is 100 to 500 nM; in test [2], not above 100 nM; with H2405 cells, 1000 to 10000 nM; in the test on Miapaca-2 cells, 1000 to 10000 nM.
Turning to `Cc1ncc(NC(=O)c2ccnc(C3CC3)c2)cc1-c1cccc(-c2ncnc3[nH]ncc23)c1` [Example 131], the half-inhibitory concentration (IC50) is not above 100 nM in test [1], not above 100 nM in test [2], 1000 to 10000 nM in the test with H2405 cells and 1000 to 10000 nM in the test with Miapaca-2 cells.
As to `CC(=O)Nc1cc(-c2ccnc(-c3cc(NC(=O)c4ccnc(C(C)(C)C#N)c4)ccc3C)n2)ccn1` [Example 103], the IC50 in test [1] is not above 100 nM; in test [2], not above 100 nM; in the test with H2405 cells it was not above 100 nM; in the test on Miapaca-2 cells, 1000 to 10000 nM.
Regarding `CC(=O)Nc1cc(-c2cncc(-c3cc(NC(=O)c4cc(C(F)(F)F)ccn4)ccc3C)n2)ccn1` [Example 124], the half-maximal inhibitory concentration (IC50) was not above 100 nM in test [1], not above 100 nM in test [2], not above 100 nM with H2405 cells and 1000 to 10000 nM in the test on Miapaca-2 cells.
`Cc1ccc(NC(=O)c2ccnc(C3(C#N)CC3)c2)cc1-c1ccnc(-c2ccnc(NC(=O)C3CC3)c2)n1` [Example 180]: the IC50 was not above 100 nM in test [1], not above 100 nM in test [2], not above 100 nM with H2405 cells and 1000 to 10000 nM with Miapaca-2 cells.
With `CC(=O)Nc1cc(-c2cc(-c3cc(NC(=O)c4ccnc(C(F)(F)F)c4)ccc3C)ccn2)ccn1` [Example 6], the concentration for half-maximal inhibition (IC50) in test [1] is not above 100 nM; in test [2], not above 100 nM; with H2405 cells, not above 100 nM; with Miapaca-2 cells, 1000 to 10000 nM.
For `Cc1ccc(NC(=O)c2cccc(C(C)(C)C#N)c2)cc1-c1cc(OCCO)nc(-c2ccnc3c2CC(=O)N3)c1` [Example 108], the 50% inhibitory concentration (IC50) in test [1] is not above 100 nM; in test [2] it was not above 100 nM; in the test on H2405 cells, not above 100 nM; with Miapaca-2 cells it was 1000 to 10000 nM.
As to `Cc1ncc(NC(=O)c2ccnc(C(C)(C)C#N)c2)cc1-c1cccc(-c2ncnc3[nH]ncc23)c1` [Example 129], the IC50 in test [1] is not above 100 nM; in test [2] it was not above 100 nM; with H2405 cells it was 100 to 500 nM; in the test with Miapaca-2 cells, 1000 to 10000 nM.
In the case of `Cc1ccc(NC(=O)c2ccnc(C(C)(C)C#N)c2)cc1-c1cncc(-c2ccnc(NC(=O)C3CC3)c2)n1` [Example 112], the IC50 is not above 100 nM in test [1], not above 100 nM in test [2], not above 100 nM in the test with H2405 cells and 1000 to 10000 nM with Miapaca-2 cells.
Consider `Cc1ccc(NC(=O)c2ccnc(C(C)(C)C#N)c2)cc1-c1cccc(-c2ccnc3[nH]ncc23)c1` [Example 134], for which the half-maximal inhibitory concentration (IC50) in test [1] is not above 100 nM; in test [2], not above 100 nM; in the test on H2405 cells it was 100 to 500 nM; with Miapaca-2 cells, 1000 to 10000 nM.
With `Cc1cc(F)c(NC(=O)c2ccnc(C(C)(C)C#N)c2)cc1-c1ccnc(-c2ccnc(NC=O)c2)c1` [Example 104], the IC50 in test [1] is not above 100 nM; in test [2], not above 100 nM; in the test with H2405 cells, not above 100 nM; in the test on Miapaca-2 cells, 1000 to 10000 nM.
As to `CNC(=O)c1cc(-c2nccc(-c3cc(NC(=O)c4ccnc(C(C)(C)C#N)c4)c(F)cc3C)n2)ccn1` [Example 166], the IC50 is 100 to 500 nM in test [1], not above 100 nM in test [2], 500 to 1000 nM with H2405 cells and 1000 to 10000 nM in the test with Miapaca-2 cells.
Take `Cc1ncc(NC(=O)c2ccnc(C(C)(C)C#N)c2)cc1-c1cccc(-c2cc(NC(=O)C3CC3)ncn2)c1` [Example 181]: the IC50 in test [1] is not above 100 nM; in test [2] it was not above 100 nM; in the test with H2405 cells, not above 100 nM; in the test on Miapaca-2 cells, 1000 to 10000 nM.
As for `CNC(=O)c1cc(-c2cc(-c3cc(NC(=O)c4ccnc(C(C)(C)C#N)c4)c(F)cc3C)ccn2)ccn1` [Example 176], the IC50 in test [1] is not above 100 nM; in test [2], not above 100 nM; in the test with H2405 cells, 100 to 500 nM; in the test with Miapaca-2 cells, 1000 to 10000 nM.
With `CNC(=O)c1cc(-c2cc(-c3cc(NC(=O)c4ccnc(C5(C#N)CC5)c4)ccc3C)ncn2)ccn1` [Example 178], the IC50 is not above 100 nM in test [1], not above 100 nM in test [2], 100 to 500 nM in the test on H2405 cells and 1000 to 10000 nM in the test on Miapaca-2 cells.
